From PubChem BioAssay (NCI)
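1) Cells in 96-well plates. 2) Compound, 48 h, 5 concentrations. 3) Linear interpolation between surrounding doses. 4) Unreached endpoint = highest concentration. At the TGI there is no net growth.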

Key:
Test in all cases: NCI tumour cell line growth inhibition, 48 h
NCI-H460 lung = test system: NCI-H460 lung
U251 CNS = test system: U251 CNS
CCRF-CEM leukemia = test system: CCRF-CEM leukemia
M14 melanoma = test system: M14 melanoma
UACC-62 melanoma = test system: UACC-62 melanoma
DMS 114 small cell lung = test system: DMS 114 small cell lung
MALME-3M melanoma = test system: MALME-3M melanoma
OVCAR-4 ovarian = test system: OVCAR-4 ovarian
NCI-H226 lung = test system: NCI-H226 lung
SK-MEL-2 melanoma = test system: SK-MEL-2 melanoma
SW-620 colon = test system: SW-620 colon
M19-MEL melanoma = test system: M19-MEL melanoma
A498 renal = test system: A498 renal
HOP-18 NSCLC = test system: HOP-18 NSCLC
KM20L2 colon = test system: KM20L2 colon
TK-10 renal = test system: TK-10 renal
COLO 205 colon = test system: COLO 205 colon
HCT-116 colon = test system: HCT-116 colon
IGROV1 ovarian = test system: IGROV1 ovarian
SNB-75 CNS = test system: SNB-75 CNS
K-562 leukemia = test system: K-562 leukemia
OVCAR-8 ovarian = test system: OVCAR-8 ovarian
HOP-62 NSCLC = test system: HOP-62 NSCLC
SF-539 CNS = test system: SF-539 CNS
SNB-19 CNS = test system: SNB-19 CNS
HOP-92 NSCLC = test system: HOP-92 NSCLC
NCI-H23 lung = test system: NCI-H23 lung
SN12C renal = test system: SN12C renal
786-0 renal = test system: 786-0 renal
DMS 273 small cell lung = test system: DMS 273 small cell lung
EKVX NSCLC = test system: EKVX NSCLC
MOLT-4 leukemia = test system: MOLT-4 leukemia
SK-MEL-5 melanoma = test system: SK-MEL-5 melanoma
RXF-631 renal = test system: RXF-631 renal
RXF 393 renal = test system: RXF 393 renal
A549 NSCLC = test system: A549 NSCLC
SK-OV-3 ovarian = test system: SK-OV-3 ovarian
SF-268 CNS = test system: SF-268 CNS
NCI-H522 lung = test system: NCI-H522 lung
XF 498 CNS = test system: XF 498 CNS
LOX IMVI melanoma = test system: LOX IMVI melanoma
HCT-15 colon = test system: HCT-15 colon
RPMI-8226 leukemia = test system: RPMI-8226 leukemia
ACHN renal = test system: ACHN renal
SK-MEL-28 melanoma = test system: SK-MEL-28 melanoma
UO-31 renal = test system: UO-31 renal
HCC-2998 colon = test system: HCC-2998 colon
HL-60(TB) leukemia = test system: HL-60(TB) leukemia
UACC-257 melanoma = test system: UACC-257 melanoma
DLD-1 colon = test system: DLD-1 colon
CAKI-1 renal = test system: CAKI-1 renal
SF-295 CNS = test system: SF-295 CNS
OVCAR-3 ovarian = test system: OVCAR-3 ovarian
HT29 colon = test system: HT29 colon
SNB-78 CNS = test system: SNB-78 CNS
KM12 colon = test system: KM12 colon
OVCAR-5 ovarian = test system: OVCAR-5 ovarian
LXFL 529 NSCLC = test system: LXFL 529 NSCLC
SR leukemia = test system: SR leukemia

SMILES: N#CNCC(COCc1ccccc1)c1ccccc1 (stereo unspecified)
- TGI (NCI-H460 lung): > 100 µM
- TGI (U251 CNS): > 100 µM
- TGI (CCRF-CEM leukemia): > 100 µM
- TGI (M14 melanoma): > 100 µM
- TGI (UACC-62 melanoma): > 100 µM
- TGI (DMS 114 small cell lung): > 100 µM
- TGI (MALME-3M melanoma): > 100 µM
- TGI (OVCAR-4 ovarian): > 100 µM
- TGI (NCI-H226 lung): > 100 µM
- TGI (SK-MEL-2 melanoma): > 100 µM
- TGI (SW-620 colon): > 100 µM
- TGI (M19-MEL melanoma): > 100 µM
- TGI (A498 renal): > 100 µM
- TGI (HOP-18 NSCLC): > 100 µM
- TGI (KM20L2 colon): > 100 µM
- TGI (TK-10 renal): > 100 µM
- TGI (COLO 205 colon): > 100 µM
- TGI (HCT-116 colon): > 100 µM
- TGI (IGROV1 ovarian): > 100 µM
- TGI (SNB-75 CNS): > 100 µM
- TGI (K-562 leukemia): > 100 µM
- TGI (OVCAR-8 ovarian): > 100 µM
- TGI (HOP-62 NSCLC): > 100 µM
- TGI (SF-539 CNS): > 100 µM
- TGI (SNB-19 CNS): > 100 µM
- TGI (HOP-92 NSCLC): > 100 µM
- TGI (NCI-H23 lung): > 100 µM
- TGI (SN12C renal): > 100 µM
- TGI (786-0 renal): > 100 µM
- TGI (DMS 273 small cell lung): > 100 µM
- TGI (EKVX NSCLC): > 100 µM
- TGI (MOLT-4 leukemia): > 100 µM
- TGI (SK-MEL-5 melanoma): > 100 µM
- TGI (RXF-631 renal): > 100 µM
- TGI (RXF 393 renal): > 100 µM
- TGI (A549 NSCLC): > 100 µM
- TGI (SK-OV-3 ovarian): > 100 µM
- TGI (SF-268 CNS): > 100 µM
- TGI (NCI-H522 lung): > 100 µM
- TGI (XF 498 CNS): > 100 µM
- TGI (LOX IMVI melanoma): > 100 µM
- TGI (HCT-15 colon): > 100 µM
- TGI (RPMI-8226 leukemia): > 100 µM
- TGI (ACHN renal): > 100 µM
- TGI (SK-MEL-28 melanoma): > 100 µM
- TGI (UO-31 renal): > 100 µM
- TGI (HCC-2998 colon): > 100 µM
- TGI (HL-60(TB) leukemia): > 100 µM

SMILES: CC1OC(n2cc(Cl)c(=O)[nH]c2=O)C=C(OC(=O)c2ccccc2)C1=O (stereo unspecified)
- TGI (NCI-H460 lung): > 100 µM
- TGI (U251 CNS): > 100 µM
- TGI (CCRF-CEM leukemia): > 100 µM
- TGI (M14 melanoma): > 100 µM
- TGI (UACC-62 melanoma): > 100 µM
- TGI (DMS 114 small cell lung): > 100 µM
- TGI (MALME-3M melanoma): > 100 µM
- TGI (OVCAR-4 ovarian): > 100 µM
- TGI (SK-MEL-2 melanoma): > 100 µM
- TGI (UACC-257 melanoma): > 100 µM
- TGI (SW-620 colon): > 100 µM
- TGI (DLD-1 colon): > 100 µM
- TGI (M19-MEL melanoma): > 100 µM
- TGI (HOP-18 NSCLC): > 100 µM
- TGI (KM20L2 colon): > 100 µM
- TGI (TK-10 renal): > 100 µM
- TGI (COLO 205 colon): > 100 µM
- TGI (CAKI-1 renal): > 100 µM
- TGI (IGROV1 ovarian): > 100 µM
- TGI (SNB-75 CNS): > 100 µM
- TGI (K-562 leukemia): > 100 µM
- TGI (SF-295 CNS): > 100 µM
- TGI (OVCAR-8 ovarian): > 100 µM
- TGI (HOP-62 NSCLC): > 100 µM
- TGI (SF-539 CNS): > 100 µM
- TGI (SNB-19 CNS): > 100 µM
- TGI (HOP-92 NSCLC): > 100 µM
- TGI (NCI-H23 lung): > 100 µM
- TGI (SN12C renal): > 100 µM
- TGI (OVCAR-3 ovarian): > 100 µM
- TGI (786-0 renal): > 100 µM
- TGI (DMS 273 small cell lung): > 100 µM
- TGI (EKVX NSCLC): > 100 µM
- TGI (MOLT-4 leukemia): > 100 µM
- TGI (SK-MEL-5 melanoma): > 100 µM
- TGI (RXF-631 renal): > 100 µM
- TGI (HT29 colon): > 100 µM
- TGI (RXF 393 renal): > 100 µM
- TGI (A549 NSCLC): > 100 µM
- TGI (SK-OV-3 ovarian): > 100 µM
- TGI (SNB-78 CNS): > 100 µM
- TGI (XF 498 CNS): > 100 µM
- TGI (LOX IMVI melanoma): > 100 µM
- TGI (HCT-15 colon): > 100 µM
- TGI (RPMI-8226 leukemia): > 100 µM
- TGI (ACHN renal): > 100 µM
- TGI (SK-MEL-28 melanoma): > 100 µM
- TGI (UO-31 renal): > 100 µM
- TGI (HL-60(TB) leukemia): > 100 µM

SMILES: COc1ccc(-c2nc(Sc3c([N+](=O)[O-])ncn3C)n[nH]2)cc1
- TGI (NCI-H460 lung): 69.1 µM
- TGI (U251 CNS): 5.55 µM
- TGI (CCRF-CEM leukemia): 40.2 µM
- TGI (M14 melanoma): 4.96 µM
- TGI (UACC-62 melanoma): 11.1 µM
- TGI (DMS 114 small cell lung): 6.64 µM
- TGI (MALME-3M melanoma): 9.9 µM
- TGI (OVCAR-4 ovarian): 81.2 µM
- TGI (NCI-H226 lung): 38.1 µM
- TGI (SK-MEL-2 melanoma): 4.95 µM
- TGI (UACC-257 melanoma): 39.2 µM
- TGI (SW-620 colon): > 100 µM
- TGI (KM12 colon): 4.31 µM
- TGI (DLD-1 colon): 6.82 µM
- TGI (M19-MEL melanoma): > 100 µM
- TGI (A498 renal): 37.6 µM
- TGI (HOP-18 NSCLC): 5.53 µM
- TGI (TK-10 renal): 44.2 µM
- TGI (COLO 205 colon): 3.28 µM
- TGI (CAKI-1 renal): > 100 µM
- TGI (HCT-116 colon): > 100 µM
- TGI (IGROV1 ovarian): 77.3 µM
- TGI (OVCAR-5 ovarian): > 100 µM
- TGI (LXFL 529 NSCLC): 13 µM
- TGI (SNB-75 CNS): > 100 µM
- TGI (K-562 leukemia): > 100 µM
- TGI (SF-295 CNS): 16.5 µM
- TGI (OVCAR-8 ovarian): 5.4 µM
- TGI (HOP-62 NSCLC): 89.9 µM
- TGI (SF-539 CNS): 4.18 µM
- TGI (SNB-19 CNS): 39.3 µM
- TGI (HOP-92 NSCLC): 8.88 µM
- TGI (NCI-H23 lung): 3.97 µM
- TGI (SN12C renal): 8.23 µM
- TGI (786-0 renal): 13.8 µM
- TGI (DMS 273 small cell lung): 4.77 µM
- TGI (EKVX NSCLC): > 100 µM
- TGI (MOLT-4 leukemia): 9.56 µM
- TGI (SK-MEL-5 melanoma): 6.83 µM
- TGI (RXF-631 renal): 22.2 µM
- TGI (RXF 393 renal): 4.28 µM
- TGI (A549 NSCLC): > 100 µM
- TGI (SK-OV-3 ovarian): > 100 µM
- TGI (SF-268 CNS): 21.1 µM
- TGI (NCI-H522 lung): 5.75 µM
- TGI (SNB-78 CNS): > 100 µM
- TGI (XF 498 CNS): 9.78 µM
- TGI (LOX IMVI melanoma): 7.92 µM
- TGI (SR leukemia): 37.3 µM
- TGI (RPMI-8226 leukemia): 23.9 µM
- TGI (ACHN renal): 23.1 µM
- TGI (SK-MEL-28 melanoma): 22 µM
- TGI (UO-31 renal): > 100 µM
- TGI (HCC-2998 colon): 30.2 µM
